The target in the first data set is T1, rat follicle stimulating hormone receptor (rFSHR) (Rattus norvegicus, UniProt P20395).
T1 construct: expressed in transfected cells
T1 sequence (P20395 18-692): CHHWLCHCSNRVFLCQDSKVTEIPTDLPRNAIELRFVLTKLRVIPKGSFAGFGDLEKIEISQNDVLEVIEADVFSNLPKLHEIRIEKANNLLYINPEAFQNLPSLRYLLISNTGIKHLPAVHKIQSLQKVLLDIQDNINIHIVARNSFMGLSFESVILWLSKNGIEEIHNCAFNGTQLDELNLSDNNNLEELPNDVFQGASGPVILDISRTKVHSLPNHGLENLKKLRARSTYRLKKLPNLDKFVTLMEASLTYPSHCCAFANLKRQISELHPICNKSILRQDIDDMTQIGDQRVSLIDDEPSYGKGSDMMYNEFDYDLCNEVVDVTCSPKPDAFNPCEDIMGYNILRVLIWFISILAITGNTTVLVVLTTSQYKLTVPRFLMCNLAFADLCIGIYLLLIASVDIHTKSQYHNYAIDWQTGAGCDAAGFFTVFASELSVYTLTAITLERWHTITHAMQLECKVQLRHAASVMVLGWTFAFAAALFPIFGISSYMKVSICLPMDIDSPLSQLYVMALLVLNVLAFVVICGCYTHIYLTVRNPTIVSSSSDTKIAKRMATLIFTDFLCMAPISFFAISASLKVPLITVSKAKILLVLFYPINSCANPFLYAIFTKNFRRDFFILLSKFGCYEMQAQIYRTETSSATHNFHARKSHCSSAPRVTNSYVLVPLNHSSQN
The data set is described as follows: Intracellular cAMP measurement (HTRF) assay, antagonism of EC70 of hFSH. The data set is classed as cell-based. As to conditions: HEK293 cells expressing rFSHR, 1 ng/ml hFSH (EC70), read-out: Class (IC50 to antagonise an EC70 of FSH receptors agonist such as hFSH). The text has this: Intracellular cAMP Measurement Assay
The Intracellular cAMP measurement assay is a functional cell-based assay used to study GPCR function. This method relies on a Time-Resolved Fluorescence (HTRF) assay to measure the cAMP accumulation upon receptor-mediated Gs protein activation in cells expressing recombinant GPCR or in cells from native tissues. In brief, this method is a competitive immunoassay between native cAMP produced by cells and the cAMP labeled with a fluorescent tag. The endogenously produced cAMP competes with exogenous added d2-labelled cAMP for the cAMP binding site on a Eu3+ cryptate labelled anti-cAMP antibody. The d2-labelled cAMP and the Eu^3+ labelled antibody produces a basal fluroresence via HTRF and therefore an intracellular increase in unlabelled cAMP is detected as decrease in this signal. cAMP is one of the most important intracellular mediators. Its concentration in cells can be increased upon binding of many hormones to their receptors. The most studied pathway consists in the release of α-subunit GTP-binding proteins following ligand-receptor interaction, which in turn activates or inhibits the ATP/cAMP conversion function of adenylate cyclase enzyme. cAMP is then involved in many complex regulatory processes such as protein kinase activation or ion channel gating. This method is widely used to study receptor activation of G protein in cells over-expressing GPCRs or in native cells, including FSH receptors expressing cells (Gabriel et al., Assay Drug Dev. Technol., 1, 291-303, 2003).
Transfection and cell culture: The cDNA encoding the rat follicle stimulating hormone receptor (rFSHR), (accession number NM_199237, NCBI Nucleotide database browser) was subcloned into an expression vector containing also the hygromycin resistance gene. Transfection of this vector into HEK293 cells with PolyFect reagent (Qiagen) according to supplier's protocol, and hygromycin treatment allowed selection of antibiotic resistant cells which had integrated stably one or more copies of the plasmid. Positive cellular clones expressing rFSHR were identified in a functional assay measuring cAMP production in cells following stimulation by addition of purified human follicle stimulating hormone (hFSH).
HTRF cAMP assay: On the day of the experiment, cells were detached from the Petri dish and distributed in a low volume, black-walled 384-well plate at a density of 5,000 cells/well in an assay buffer containing 1 mM IBMX to prevent cAMP degradation by cytoplasmic phosphodiesterases. The determination of the cAMP accumulation was performed using an HTRF assay (Trinquet et al., Anal. Biochem., 358, 126-135, 2006). Briefly, cells were incubated for 3 min in the presence of increasing concentrations of negative allosteric modulators (from 1 nM to 60 μM) and then 30 min in the presence of 1 ng/ml of hFSH, an agonist of rat FSH receptor, that has been determined in previous experiments to correspond to the EC70, a concentration that gives 70% of the maximal response of the agonist, and is in accordance with published data (Fox et al., Mol. Endocrin., 15, 378-389, 2001). […] Cells were then lysed by adding the HTRF assay components, the europium cryptate-labeled anti-cAMP antibody, and the XL665-labeled cAMP analog, previously diluted in a HEPES buffer (50 mM, pH 7.0) containing 0.8 M potassium fluoride, 0.2% (w/v) BSA, and 1% (v/v) Triton X-100, a percentage of detergent that ensure complete cell lysis. Assay was then incubated for 1 hr at room temperature, and HTRF signal was measured after excitation at 337 nm, and dual emission at 620 and 665 nm, using a RubyStar fluorimeter (BMG Labtechnologies). Moreover, the fluorescence ratio of an appropriate range of known concentrations of cAMP standards was also included on each assay plate to produce a standard cAMP curve. […]
In general terms: In TR-FRET formats the signal depends on donor and acceptor labels being close together.
Regarding `COc1ccc(C(=O)Nc2ccc(C(C)(C)CNC(=O)c3n[nH]c4ccccc34)c(C)c2)cc1OC` [Example 109, 1H-Indazole-3-carboxylic acid{2-[4-(3,4-dimethoxy-benzoylamino)-2-methyl-phenyl]-2-methyl-propyl}-amide], the IC50 (as a rule, the concentration needed to halve the response being measured) was 150 to 400 nM. In the case of `COc1ccc(C(=O)Nc2ccc(C(C)(C)CCNC(=O)c3cnc4ccccn34)cc2)cc1OC` [Example 194, Imidazo[1,2-a]pyridine-3-carboxylic acid {3-[4-(3,4-dimethoxy-benzoylamino)-phenyl]-3-methyl-butyl}-amide], the IC50 was 150 to 400 nM. Consider `CCc1cc(NC(=O)c2ccc(OC)c(OC)c2)ccc1C(C)(C)CNC(=O)c1cnc2[nH]cnc2c1` [Example 198, 3H-Imidazo[4,5-b]pyridine-6-carboxylic acid {2-[4-(3,4-dimethoxy-benzoylamino)-2-ethyl-phenyl]-2-methyl-propyl}-amide], for which the IC50 is under 150 nM.

For the compound `COc1ccc(C(=O)Nc2ccc(C(C)(C)CNC(=O)c3cnc4ccc(F)cn34)cc2)cc1OC` [Example 211], the IC50 was under 150 nM. Regarding `COCCn1cc(C(=O)NCC(C)(C)c2ccc(NC(=O)c3ccc(OC)c(OC)c3)cc2)c2cc(F)ccc21` [Example 191, 5-Fluoro-1-(2-methoxy-ethyl)-1H-indole-3-carboxylic acid {2-[4-(3,4-dimethoxy-benzoylamino)-phenyl]-2-methyl-propyl}-amide], the IC50 fell in the range of 150 to 400 nM. On to `COc1ccc(C(=O)Nc2ccc(C(C)(C)CNC(=O)c3nc4ccncc4[nH]3)cc2)cc1OC` [Example 214], for which the IC50 was in the range of 150 to 400 nM.

Take `COc1ccc(C(=O)Nc2ccc(C(C)(CO)CNC(=O)c3cnc4ccccn34)cc2)cc1OC` (centres unmarked) [Example 212, Imidazo[1,2-a]pyridine-3-carboxylic acid {2-[4-(3,4-dimethoxy-benzoylamino)-phenyl]-3-hydroxy-2-methyl-propyl}-amide]: the IC50 is at least 1000 nM. Still for that read-out and setting: for `COc1ccc(C(=O)Nc2ccc(C(C)(C)CNC(=O)c3ccco3)cc2)cc1OC` [Example 32] the value was 150 to 400 nM; for `COc1ccc(C(=O)Nc2ccc(C(C)(C)C#N)c(C(F)(F)F)c2)cc1OC` [Example 99, N-[4-(Cyano-dimethyl-methyl)-3-trifluoromethyl-phenyl]-3,4-dimethoxy-benzamide], 150 to 400 nM.

`COc1ccc(C(=O)Nc2ccc(C(C)(C)CNC(=O)c3cn4cccnc4n3)cc2)cc1OC` [Example 186]: the IC50 was at least 1000 nM. With `COc1ccc(C(=O)Nc2ccc(C(C)(C)CNC(=O)c3nn(C)c4ccccc34)c(C)c2)cc1OC` [Example 110, 1-Methyl-1H-indazole-3-carboxylic acid{2-[4-(3,4-dimethoxy-benzoylamino)-2-methyl-phenyl]-2-methyl-propyl}-amide], the IC50 is 150 to 400 nM. `COc1ccc(C(=O)Nc2ccc(C(C)(C)CNC(=O)c3c[nH]c4ncc(F)cc34)cc2)cc1OC` [Example 216]: the IC50 lay in the range of 150 to 400 nM. For `COc1ccc(C(=O)Nc2ccc(C(C)(C)CNC(=O)c3ccc4[nH]ccc4c3)cc2)cc1OC` [Example 142], the IC50 is 150 to 400 nM. `COc1ccc(C(=O)Nc2ccc(C(C)(C)CCNC(=O)c3nc4cccnc4[nH]3)cc2)cc1OC` [Example 196, 3H-Imidazo[4,5-b]pyridine-2-carboxylic acid {3-[4-(3,4-dimethoxy-benzoylamino)-phenyl]-3-methyl-butyl}-amide]: the IC50 was 150 to 400 nM. As for `COc1ccc(C(=O)Nc2cccc(C(C)(C)CNC(=O)c3cnc4ccccn34)c2)cc1OC` [Example 203, Imidazo[1,2-a]pyridine-3-carboxylic acid {2-[3-(3,4-dimethoxy-benzoylamino)-phenyl]-2-methyl-propyl}-amide], the IC50 lay within 150 to 400 nM.

Test system in another data set: not given
Assay: not given
Conditions: not given
On to `COc1ccc(C(=O)Nc2ccc(C3(CNC(C)=O)CC3)cc2)cc1OC` [Example 54, N-{4-[1-(Acetylamino-methyl)-cyclopropyl]-phenyl}-3,4-dimethoxy-benzamide], for which the melting point (as a rule, the temperature, or range, at which the solid turns liquid) lay within 204 to 206 °C. `COc1ccc(C(=O)Nc2ccc(C(C)(C)c3noc(COc4ccccc4)n3)cc2)cc1OC` [Example 53, 3,4-Dimethoxy-N-{4-[1-methyl-1-(5-phenoxymethyl-[1,2,4]oxadiazol-3-yl)-ethyl]-phenyl}-benzamide] came in with a melting point of 165 to 167 °C. In turn, `COc1ccc(C(=O)Nc2ccc(C(C)(C)C#N)cc2)cc1OC` [Example 1, N-[4-(Cyano-dimethyl-methyl)-phenyl]-3,4-dimethoxy-benzamide] yielded a melting point of 139 to 141 °C. `COc1cc(Cl)c(C(=O)Nc2ccc(C(C)(C)C#N)cc2)cc1OC` [Example 155, 2-Chloro-N-[4-(cyano-dimethyl-methyl)-phenyl]-4,5-dimethoxy-benzamide] returned a melting point of 142 to 144 °C. Regarding `COc1ccc(C(=O)Nc2ccc(C(C)(C)CNC(=O)c3cnc4ccccn34)cc2)cc1OC` [Example 161, Imidazo[1,2-a]pyridine-3-carboxylic acid {2-[4-(3,4-dimethoxy-benzoylamino)-phenyl]-2-methyl-propyl}-amide], the melting point fell in the range of 181 to 183 °C. `COc1ccc(C(=O)Nc2cccc(C(C)(C)CNC(C)=O)c2)cc1OC` [Example 88, N-[3-(2-Acetylamino-1,1-dimethyl-ethyl)-phenyl]-3,4-dimethoxy-benzamide] gave a melting point of 132 to 134 °C.

`COc1ccc(C(=O)Nc2ccc(C(C)(C)CN3CCOC3=O)cc2)cc1OC` [Example 60, N-{4-[1,1-Dimethyl-2-(2-oxo-oxazolidin-3-yl)-ethyl]-phenyl}-3,4-dimethoxy-benzamide] registered a melting point of 190 to 191 °C.

`COc1ccc(C(=O)Nc2ccc(C(C)(C)CNC(C)=O)cc2)cc1OC` [Example 26, N-[4-(2-Acetylamino-1,1-dimethyl-ethyl)-phenyl]-3,4-dimethoxy-benzamide] came in with a melting point of 195 to 197 °C. Compound `COc1ccc(C(=O)Nc2ccc(C(C)(C)CNC(C)=O)c(F)c2)cc1OC` [Example 151, N-[4-(2-Acetylamino-1,1-dimethyl-ethyl)-3-fluoro-phenyl]-3,4-dimethoxy-benzamide] came in with a melting point of 186 to 188 °C. `COc1cc(C(C)(C)C#N)ccc1NC(=O)c1ccc(OC)c(OC)c1` [Example 75, N-[4-(Cyano-dimethyl-methyl)-2-methoxy-phenyl]-3,4-dimethoxy-benzamide] gave a melting point of 110 to 112 °C. Still for that read-out and setting: to `CCOc1ccc(C(=O)Nc2ccc(C(C)(C)C#N)cc2)cc1OCC` [Example 160, N-[4-(Cyano-dimethyl-methyl)-phenyl]-3,4-diethoxy-benzamide] belongs 138 to 140 °C.

The values are drawn from patent US20100249123A1, “NOVEL BENZAMIDE DERIVATIVES AS MODULATORS OF THE FOLLICLE STIMULATING HORMONE” (ADDEX PHARMA SA, priority 2007, published 2010).
